The values below come from patent US10072051B2, “Anti-inflammatory lipopeptide and preparing method and application thereof” (EAST CHINA NORMAL UNIVERSITY, priority 2012, dated 2018).

Entries after “also recorded” stand apart in the source; their conditions may differ.

What all share (type): cell-based
One assay concerns NHEKs. Nature of the assay: poly(I:C)-induced TNF-α and IL-6 expression in NHEKs, real-time RT-PCR. Here is the method:
NHEKs were seeded in 24-well plates to grow to 70˜80% confluence, 2 ug/ml poly(I:C) were added. Different concentrations of the lipopeptide as Formula (1) in Example 1 were used to treat NHEKs. After 24 h, total RNA was extracted and cDNA was generated to detect the TNF-α and IL-6 expression by using real-time RT-PCR. […]
In general terms: Real-time PCR tracks product formation cycle by cycle.

Another assay deals with keratinocytes (NHEK). Put plainly: OVA-stimulated keratinocytes (NHEK), real-time RT-PCR. The conditions noted are these: NHEKs treated with PPARγ inhibitor. Here is the method:
To mimics the condition of atopic dermatitis keratinocytes was stimulated by ovalbumin (OVA). To test the inhibitory effect of the lipopeptide on inflammatory response in atopic dermatitis, PBS, OVA, lipopeptide, lipopeptide plus OVA were used to stimulate keratinocytes (NHEK) and RNA was extracted after 24-hour stimulation. The expression of TNF-α and IL-6 was analyzed by real-time RT-PCR.

The test system of the next assay is β-catenin. Nature of the assay: β-catenin translocation into the nucleus in NHEKs. The following applies: LiCl, nucleocytoplasmic separation.
The subject of assay [1] is p65. Put plainly: p65 translocation into the nucleus in NHEKs (immunofluorescence, Western blot of nuclear proteins). The following applies: poly(I:C) alone; for p65 translocation into the nucleus: immunofluorescence. Here is the method:
NHEKs were treated with PBS or poly(I:C) for 4 hours, and fixed with formaldehyde for 15 min followed by adding ice-cold 0.25% TritonX-100 and hydrogen peroxide. Cells were incubated with anti-p65 antibody at 4° C. for overnight after blocked with BSA for 0.5 hour. Next day, the cells were incubated with the second antibody (FITC-goat anti Rabbit IgG) and visualized under the microscope.
NHEKs were treated with PBS, lipopeptide, poly(I:C) with or without lipopeptide for 12 hours, and fixed with formaldehyde for 15 min followed by adding ice-cold 0.25% TritonX-100 and hydrogen peroxide. Cells were stained with anti-p65 antibody for overnight after blocked with BSA for 0.5 h. Then the cells were incubated with the second antibody (FITC-goat anti Rabbit IgG) and visualized under the microscope.
NHEKs were treated with PBS, poly(I:C), lipopeptide, poly(I:C) with lipopeptide for 12 hours. Proteins from nucleus were isolated and separated by PAGE. The p65 in the nucleus was detected by Western blot. […] Thus the lipopeptide has no effect on poly(I:C)-induced p65 translocation into the nucleus.
A general note: In western blotting, separated proteins are transferred to a membrane and probed.

Assay [2] concerns p65. Put plainly: p65 phosphorylation in NHEKs, Western blot. The following applies: poly(I:C) alone, 4 hours and 12 hours. Here is the method: NHEKs were treated with PBS, poly(I:C), lipopeptide, poly(I:C) with lipopeptide for 4 hours or 12 hours. And then RIPA lysate was added to lyse the cell. The protein concentration was detected by using BCA protein assay kit, and 40 ug of proteins were separated by SDS-PAGE. The effects of the lipopeptide on p65 phosphorylation were detected by Western blot.

A further assay concerns PPAR-γ and p65. Nature of the assay: interaction between PPAR-γ and p65 in NHEKs, co-immunoprecipitation. The following applies: poly(I:C) 4 hours or 12 hours, immunoprecipitation with p65 antibody. Here is the method:
Example 4 illustrates that poly(I:C) can induce p65 phosphorylation and translocation, and poly(I:C) induces the inflammatory response through PPAR-γ. The aim of Example 5 is to illustrate the interaction between the translocated p65 and PPAR-γ in the nucleus. NHEKs were treated with poly(I:C) for 4 hours or 12 hours. Whole-cell extracts were prepared by using lysis buffer containing NP40 and incubated with the p65 antibody at 4° C. for overnight. Protein AG beads were added and incubated at 4° C. for 1-2 hours. Beads were then washed twice with washing buffer. The immunoprecipitates were eluted with 20 ul 2× sodium dodecyl sulfate (SDS) loading buffer and separated by PAGE. The proteins were transferred to nitrocellulose membrane and probed with PPAR-γ antibody.

The mark [3] stands for this setting: NHEKs treated with poly(I:C) alone, 24 h.

For the compound `O=C(Nc1ccccc1)c1cc([N+](=O)[O-])ccc1Cl` [GW9662], in the assay with NHEKs (NHEKs, 24 h), the “expression of IL-6 induced by poly(I:C)” value is given as “significantly inhibited” and the “expression of TNF-α induced by poly(I:C)” value is recorded as “significantly inhibited”. Also, in the assay with keratinocytes (NHEK), the “OVA-induced expression of inflammatory factor” value is “significantly decreased”.
As to `[Cl-].[Li+]` [LiCl], in the assay on β-catenin, the β-catenin translocation result is given as “induces”. Moreover, the “poly(I:C)-induced inflammatory response” value with NHEKs (NHEKs, 24 hours) is “inhibits”.
Take `N.S=C(S)N1CCCC1` [PDTC]: in the assay on NHEKs (NHEKs, 24 h), the “expression of IL-6 induced by poly(I:C)” value was “inhibited” and the “expression of TNF-α induced by poly(I:C)” value is “inhibited”.
Turning to poly(I:C), the “p65 translocation into the nucleus” value in the assay with p65 [1] (4 hours) is on record as “obviously induces”. In the assay with p65 [1] (12 hours, Western blot), the “level of p65 in the nucleus” value is listed as “significantly increases”. Further, the “p65 translocation into the nucleus” value in the assay with p65 [1] (12 hours) is reported as “obviously induces”. In addition, in the assay on NHEKs (setting [3]), the IL-6 expression result is recorded as “dramatically induces; also recorded: dramatically increases” and the TNF-α expression entry is on record as “dramatically induces; also recorded: dramatically increases”. Further, the p65 phosphorylation result in the assay on p65 [2] is “significantly induces”. The “interaction between PPAR-γ and P65” value with PPAR-γ and p65 was “significantly induces”.
